Experimental data taken from the supplement of paper PMC10307832.

Key:
Assay in all cases: relative viability (nuclei count vs DMSO), 5 days (fraction); higher = more cells survive
[1] = test system: 201T
In short: (§1)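 Lung cancer cell lines in 1536-well plates got either a single drug or a fixed anchor-drug dose together with five library-drug doses (not always all listed) in √10 steps, by pin tool, on the day after seeding. Nuclei were counted after 5 days, and relative viability is the treated-to-vehicle ratio of nuclei counts. Values are medians of duplicate plates.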

[2] = test system: A-427
In short: as §1

[3] = test system: ABC-1
In short: as §1

[4] = test system: BEN
In short: as §1

[5] = test system: CAL-12T
In short: as §1

[6] = test system: H3255
In short: as §1

[7] = test system: HCC-15
In short: as §1

[8] = test system: LC-2-ad
In short: as §1

[9] = test system: LCLC-97TM1
In short: as §1

[10] = test system: NCI-H1651
In short: as §1

[11] = test system: NCI-H1792
In short: as §1

[12] = test system: NCI-H1915
In short: as §1

[13] = test system: NCI-H1944
In short: as §1

[14] = test system: NCI-H2023
In short: as §1

[15] = test system: NCI-H2087
In short: as §1

[16] = test system: NCI-H441
In short: as §1

[17] = test system: NCI-H460
In short: as §1

[18] = test system: NCI-H520
In short: as §1

[19] = test system: NCI-H596
In short: as §1

[20] = test system: NCI-H650
In short: as §1

[21] = test system: NCI-H661
In short: as §1

[22] = test system: NCI-H727
In short: as §1

[23] = test system: PC-3 [JPC-3]
In short: as §1

In the case of `Clc1ccc(Nc2nnc(Cc3ccncc3)c3ccccc23)cc1` [Vatalanib] + Cc1nc(NC(=O)N2CCC[C@H]2C(N)=O)sc1-c1ccnc(C(C)(C)C(F)(F)F)c1 [Alpelisib] (partner 2 µM), the relative viability ([1]; first compound 0.04 µM) is reported as 0.984, the relative viability ([1]; first compound 0.1265 µM) is reported as 1.03 and the relative viability ([1]; first compound 0.4 µM) is reported as 1.04. It also gave a relative viability ([1]; first compound 1.265 µM) of 1.03, a relative viability ([1]; first compound 4 µM) of 1.07 and a relative viability ([2]; first compound 0.04 µM) of 0.988. It also gave a relative viability ([2]; first compound 0.1265 µM) of 1.06, a relative viability ([2]; first compound 0.4 µM) of 1.13 and a relative viability ([2]; first compound 1.265 µM) of 1.11. The relative viability ([2]; first compound 4 µM) was 1.08, the relative viability ([3]; first compound 0.04 µM) was 1 and the relative viability ([3]; first compound 0.1265 µM) was 0.936. The relative viability ([3]; first compound 0.4 µM) was 1.2, the relative viability ([3]; first compound 1.265 µM) was 0.853 and the relative viability ([3]; first compound 4 µM) was 0.926. It also gave a relative viability ([4]; first compound 0.04 µM) of 1.05, a relative viability ([4]; first compound 0.1265 µM) of 0.945 and a relative viability ([4]; first compound 0.4 µM) of 1.09. For the same compound, the relative viability ([4]; first compound 1.265 µM) was 1.18, the relative viability ([4]; first compound 4 µM) was 1.04 and the relative viability ([5]; first compound 0.04 µM) was 1.05. For the same compound, the relative viability ([5]; first compound 0.1265 µM) was 1.26, the relative viability ([5]; first compound 0.4 µM) was 1.44 and the relative viability ([5]; first compound 1.265 µM) was 0.987. The relative viability ([5]; first compound 4 µM) was 1.22, the relative viability ([6]; first compound 0.04 µM) was 0.649 and the relative viability ([6]; first compound 0.1265 µM) was 0.666. The relative viability ([6]; first compound 0.4 µM) was 0.514, the relative viability ([6]; first compound 1.265 µM) was 0.705 and the relative viability ([6]; first compound 4 µM) was 0.618. The relative viability ([7]; first compound 0.04 µM) was 0.893, the relative viability ([7]; first compound 0.1265 µM) was 0.884 and the relative viability ([7]; first compound 0.4 µM) was 0.918. It also gave a relative viability ([7]; first compound 1.265 µM) of 0.916, a relative viability ([7]; first compound 4 µM) of 0.937 and a relative viability ([8]; first compound 0.04 µM) of 0.86. For the same compound, the relative viability ([8]; first compound 0.1265 µM) was 0.847, the relative viability ([8]; first compound 0.4 µM) was 0.988 and the relative viability ([8]; first compound 1.265 µM) was 0.825. It also gave a relative viability ([8]; first compound 4 µM) of 0.867, a relative viability ([9]; first compound 0.04 µM) of 0.248 and a relative viability ([9]; first compound 0.1265 µM) of 0.2. It also gave a relative viability ([9]; first compound 0.4 µM) of 0.262, a relative viability ([9]; first compound 1.265 µM) of 0.178 and a relative viability ([9]; first compound 4 µM) of 0.353. The relative viability ([10]; first compound 0.04 µM) was 0.869, the relative viability ([10]; first compound 0.1265 µM) was 0.863 and the relative viability ([10]; first compound 0.4 µM) was 0.968. It also gave a relative viability ([10]; first compound 1.265 µM) of 0.894, a relative viability ([10]; first compound 4 µM) of 0.929 and a relative viability ([11]; first compound 0.04 µM) of 0.669. It also gave a relative viability ([11]; first compound 0.1265 µM) of 0.741, a relative viability ([11]; first compound 0.4 µM) of 0.639 and a relative viability ([11]; first compound 1.265 µM) of 0.677. It also gave a relative viability ([11]; first compound 4 µM) of 0.73, a relative viability ([12]; first compound 0.04 µM) of 1.03 and a relative viability ([12]; first compound 0.1265 µM) of 1.05. The relative viability ([12]; first compound 0.4 µM) was 1.06, the relative viability ([12]; first compound 1.265 µM) was 1.04 and the relative viability ([12]; first compound 4 µM) was 1.1. The relative viability ([13]; first compound 0.04 µM) was 0.888, the relative viability ([13]; first compound 0.1265 µM) was 0.706 and the relative viability ([13]; first compound 0.4 µM) was 0.833. It also gave a relative viability ([13]; first compound 1.265 µM) of 0.808, a relative viability ([13]; first compound 4 µM) of 0.864 and a relative viability ([14]; first compound 0.04 µM) of 0.611. For the same compound, the relative viability ([14]; first compound 0.1265 µM) was 0.537, the relative viability ([14]; first compound 0.4 µM) was 0.657 and the relative viability ([14]; first compound 1.265 µM) was 0.492. For the same compound, the relative viability ([14]; first compound 4 µM) was 0.561, the relative viability ([15]; first compound 0.04 µM) was 1.1 and the relative viability ([15]; first compound 0.1265 µM) was 0.96. The relative viability ([15]; first compound 0.4 µM) was 1.3, the relative viability ([15]; first compound 1.265 µM) was 0.964 and the relative viability ([15]; first compound 4 µM) was 1.1. The relative viability ([16]; first compound 0.04 µM) was 0.808, the relative viability ([16]; first compound 0.1265 µM) was 0.627 and the relative viability ([16]; first compound 0.4 µM) was 0.733. The relative viability ([16]; first compound 1.265 µM) was 0.836, the relative viability ([16]; first compound 4 µM) was 0.859 and the relative viability ([17]; first compound 0.04 µM) was 0.512. The relative viability ([17]; first compound 0.1265 µM) was 0.392, the relative viability ([17]; first compound 0.4 µM) was 0.654 and the relative viability ([17]; first compound 1.265 µM) was 0.467. The relative viability ([17]; first compound 4 µM) was 0.441, the relative viability ([18]; first compound 0.04 µM) was 0.848 and the relative viability ([18]; first compound 0.1265 µM) was 0.895. The relative viability ([18]; first compound 0.4 µM) was 0.912, the relative viability ([18]; first compound 1.265 µM) was 0.855 and the relative viability ([18]; first compound 4 µM) was 0.852. The relative viability ([19]; first compound 0.04 µM) was 0.503, the relative viability ([19]; first compound 0.1265 µM) was 0.499 and the relative viability ([19]; first compound 0.4 µM) was 0.498. The relative viability ([19]; first compound 1.265 µM) was 0.53, the relative viability ([19]; first compound 4 µM) was 0.511 and the relative viability ([20]; first compound 0.04 µM) was 1.24. It also gave a relative viability ([20]; first compound 0.1265 µM) of 0.936, a relative viability ([20]; first compound 1.265 µM) of 1.06 and a relative viability ([20]; first compound 4 µM) of 1.13. For the same compound, the relative viability ([21]; first compound 0.04 µM) was 0.617, the relative viability ([21]; first compound 0.1265 µM) was 0.557 and the relative viability ([21]; first compound 0.4 µM) was 0.717. The relative viability ([21]; first compound 1.265 µM) was 0.653, the relative viability ([21]; first compound 4 µM) was 0.519 and the relative viability ([22]; first compound 0.04 µM) was 0.463. It also gave a relative viability ([22]; first compound 0.1265 µM) of 0.528, a relative viability ([22]; first compound 0.4 µM) of 0.666 and a relative viability ([22]; first compound 1.265 µM) of 0.397. The relative viability ([22]; first compound 4 µM) was 0.566, the relative viability ([23]; first compound 0.04 µM) was 1.01 and the relative viability ([23]; first compound 0.1265 µM) was 0.972. The relative viability ([23]; first compound 0.4 µM) was 1.01, the relative viability ([23]; first compound 1.265 µM) was 0.941 and the relative viability ([23]; first compound 4 µM) was 1.01.
